{
  "source": "paper PMC6129397",
  "about": "(Xenobiotica; the fate of foreign compounds in biological …, 2017)",
  "key": {"[1]": {"molecular_target": "T1, glucocorticoid receptor (GR) (Homo sapiens, UniProt P04150)", "T1 sequence (P04150 1-777)": "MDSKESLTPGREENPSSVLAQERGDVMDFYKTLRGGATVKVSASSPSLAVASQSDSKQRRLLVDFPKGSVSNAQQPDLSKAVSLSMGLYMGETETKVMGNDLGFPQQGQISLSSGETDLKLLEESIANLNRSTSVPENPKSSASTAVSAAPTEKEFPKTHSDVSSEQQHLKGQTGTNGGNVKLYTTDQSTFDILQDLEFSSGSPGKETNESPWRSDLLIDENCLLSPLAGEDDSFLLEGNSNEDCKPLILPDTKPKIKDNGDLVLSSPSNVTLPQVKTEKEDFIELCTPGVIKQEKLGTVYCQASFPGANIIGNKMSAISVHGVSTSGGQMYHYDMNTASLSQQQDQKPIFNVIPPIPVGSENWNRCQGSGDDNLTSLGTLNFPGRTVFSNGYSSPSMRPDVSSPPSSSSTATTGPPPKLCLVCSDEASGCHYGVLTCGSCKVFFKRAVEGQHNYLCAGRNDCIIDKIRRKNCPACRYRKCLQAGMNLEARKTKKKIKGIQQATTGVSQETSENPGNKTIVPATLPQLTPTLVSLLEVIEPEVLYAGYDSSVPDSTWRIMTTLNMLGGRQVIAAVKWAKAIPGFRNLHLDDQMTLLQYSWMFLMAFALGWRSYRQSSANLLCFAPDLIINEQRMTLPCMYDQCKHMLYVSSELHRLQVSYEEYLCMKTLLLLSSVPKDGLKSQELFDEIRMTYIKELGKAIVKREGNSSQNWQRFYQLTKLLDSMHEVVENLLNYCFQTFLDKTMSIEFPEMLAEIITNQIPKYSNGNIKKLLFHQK", "test": "Glucocorticoid receptor", "type": "cell-based"}, "[2]": {"tested_on": "human liver microsomes (HLM)", "test": "Oxidation-glucuronidation assay with HLMs", "type": "in vitro ADME"}, "[3]": {"molecular_target": "T2, progesterone receptor (PR) (Homo sapiens, UniProt P06401)", "T2 sequence (P06401 1-933)": "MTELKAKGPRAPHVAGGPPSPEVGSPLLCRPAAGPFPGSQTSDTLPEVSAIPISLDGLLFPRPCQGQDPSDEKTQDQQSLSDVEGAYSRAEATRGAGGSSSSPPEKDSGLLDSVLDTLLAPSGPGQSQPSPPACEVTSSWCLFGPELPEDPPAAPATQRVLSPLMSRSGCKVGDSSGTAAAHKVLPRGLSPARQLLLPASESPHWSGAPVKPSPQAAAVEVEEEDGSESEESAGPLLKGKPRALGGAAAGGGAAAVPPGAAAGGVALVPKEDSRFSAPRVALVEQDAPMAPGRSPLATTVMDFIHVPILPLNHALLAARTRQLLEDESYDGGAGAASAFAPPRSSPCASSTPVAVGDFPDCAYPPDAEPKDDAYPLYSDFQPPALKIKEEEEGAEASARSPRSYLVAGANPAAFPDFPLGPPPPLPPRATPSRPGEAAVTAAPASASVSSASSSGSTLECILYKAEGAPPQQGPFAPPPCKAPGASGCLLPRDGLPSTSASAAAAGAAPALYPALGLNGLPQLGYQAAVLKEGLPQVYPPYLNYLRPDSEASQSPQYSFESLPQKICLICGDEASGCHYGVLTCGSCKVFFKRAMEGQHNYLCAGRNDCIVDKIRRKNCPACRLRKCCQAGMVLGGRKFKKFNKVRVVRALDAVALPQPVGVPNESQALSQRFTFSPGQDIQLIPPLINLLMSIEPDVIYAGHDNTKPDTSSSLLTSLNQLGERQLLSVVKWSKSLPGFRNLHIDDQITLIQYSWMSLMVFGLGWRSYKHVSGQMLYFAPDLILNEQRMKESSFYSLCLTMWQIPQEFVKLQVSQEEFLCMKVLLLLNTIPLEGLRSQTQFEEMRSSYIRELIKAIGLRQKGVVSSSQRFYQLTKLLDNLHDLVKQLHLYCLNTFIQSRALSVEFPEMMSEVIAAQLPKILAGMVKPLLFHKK", "test": "Progesterone receptor", "type": "cell-based"}, "[4]": {"conditions": "T47D cells, 8 h, 10 nM, versus ethanol"}},
  "note": "Read-outs that look alike come from different tables or passages of the source.",
  "data": [
    {"smiles": "C[C@@H]1C[C@H]2[C@@H]3CCC4=CC(=O)C=C[C@]4(C)[C@@]3(F)[C@@H](O)C[C@]2(C)[C@@]1(O)C(=O)CO", "note": "[Dexamethasone, dexamethasone]", "values": [
      {"measurement": "average mRNA fold change GILZ", "setting": "[1]; MDA-MB-231 cells, 4 h, 0.1 μM", "result": 18.5, "unit": "fold change"},
      {"measurement": "average mRNA fold change SGK1", "setting": "[1]; MDA-MB-231 cells, 4 h, 0.1 μM", "result": 5.6, "unit": "fold change"}
    ]},
    {"smiles": "CO[C@H]1C[C@H](O[C@H]2[C@H](C)[C@@H](O[C@@H]3O[C@H](C)C[C@H](N(C)C)[C@H]3OC(C)=O)[C@@H](C)C[C@@]3(CO3)C(=O)[C@H](C)[C@@H](OC(C)=O)[C@@H](C)[C@@H](C)OC(=O)[C@@H]2C)O[C@@H](C)[C@@H]1OC(C)=O", "note": "[troleandomycin]", "values": [
      {"measurement": "inhibition of M1", "setting": "HLMs; 28 μM MA, troleandomycin 50 μM", "result": 93.2, "unit": "%"},
      {"measurement": "inhibition of M2", "setting": "HLMs; 28 μM MA, troleandomycin 50 μM", "result": 100, "unit": "%"},
      {"measurement": "inhibition of M1", "setting": "HLMs; 62 μM MA, troleandomycin 50 μM", "result": 94.4, "unit": "%"},
      {"measurement": "inhibition of M2", "setting": "HLMs; 62 μM MA, troleandomycin 50 μM", "result": 100, "unit": "%"}
    ]},
    {"smiles": "CC(=O)N1CCN(c2ccc(OCC3COC(Cn4ccnc4)(c4ccc(Cl)cc4Cl)O3)cc2)CC1", "note": "(centres unmarked) [ketoconazole]", "values": [
      {"measurement": "inhibition of M1", "setting": "HLMs; 28 μM MA, ketoconazole 1 μM", "result": 96.2, "unit": "%"},
      {"measurement": "inhibition of M2", "setting": "HLMs; 28 μM MA, ketoconazole 1 μM", "result": 100, "unit": "%"},
      {"measurement": "inhibition of M1", "setting": "HLMs; 62 μM MA, ketoconazole 1 μM", "result": 100, "unit": "%"},
      {"measurement": "inhibition of M2", "setting": "HLMs; 62 μM MA, ketoconazole 1 μM", "result": 100, "unit": "%"}
    ]},
    {"smiles": "CC(=O)O[C@]1(C(C)=O)CC[C@H]2[C@@H]3C=C(C)C4=CC(=O)CC[C@]4(C)[C@H]3CC[C@@]21C", "note": "[MA, Megestrol acetate]", "values": [
      {"measurement": "glucuronide formation by HLM", "setting": "[2]; UDPGA alone (data not shown)", "result": "does not form any glucuronides"},
      {"measurement": "glucuronide formation by HLM", "setting": "[2]; co-incubation with both NADPH and UDPGA, 24 hrs", "result": "two glucuronides were detected"},
      {"measurement": "pharmacologic activity on the PR", "setting": "[3]; in words", "result": "significant pharmacologic activity"},
      {"measurement": "activity on the GR", "setting": "[1]; in words", "result": "showed activity"}
    ]},
    {"smiles": "CCC(=O)[C@@]1(C)CC[C@H]2[C@@H]3CCC4=CC(=O)CCC4=C3CC[C@@]21C", "note": "[Metabolite R5020]", "values": [
      {"measurement": "average mRNA fold change E2F1", "setting": "[3]; [4]", "result": "4.8 ± 0.4", "unit": "fold change"},
      {"measurement": "average mRNA fold change FKBP5", "setting": "[3]; [4]", "result": "9.5 ± 0.3", "unit": "fold change"},
      {"measurement": "average mRNA fold change GREB1", "setting": "[3]; [4]", "result": "2.2 ± 0.1", "unit": "fold change"}
    ]}
  ]
}
